Laboratory results from US20090069429A1 (SGP & SONS AB, priority 2006, published 2009).
“Also recorded” adds a separate entry of the source.

Columns and labels:
muscle = experiment: Muscle performance after oral AKG (general conclusions); assay type: in vivo, rat
Method: (§1) Animals were kept in a thermostatically controlled chamber, containing the equipment to measure contractile force in isolated rat skeletal muscle, i.e. a computer, analogue-digital transducer, amplifier, differential amplifier, stimulator, […] and 5% carbon dioxide.
(§2) Thermostatically controlled chamber, maintained at 30° C., contained a glass diffuser for efficient oxygenation of buffer, a mounting/stimulation block with 2 pins to fix portion of fibula in place and 2 silver stimulating electrodes.

[1] = test system: slow-twitch soleus muscle; experiment: Contractile endurance and force of isolated soleus muscle from rats given AKG, continuous electrical stimulation at 40 Hz; assay type: in vivo, rat
Method: FIG. 4 presents contracting characteristics of soleus muscles in uremic rats +test component (n=10), control rats+placebo (n=8), control rats+test component (n=4) incubated in Krebs Ringer physiological solution (30 min. incubation) and electrically stimulated at 40 Hz (32 mA, 1 ms, <90V).
as §1, §2

[2] = test system: fast-twitch extensor digitorum longus muscle (EDL); experiment: Contractile endurance and force of isolated extensor digitorum longus muscle from rats given AKG, continuous electrical stimulation at 90 Hz; assay type: in vivo, rat
Method: FIG. 5 presents contracting characteristics of extensor digitorum longus muscle in uremic rats+test component (n=3) and control rats+test component (n=2) incubated in Krebs Ringer solution and uremic rats+test component (n=3) incubated in Uremic Buffer (30 min.), 90 Hz, 1 ms and <90V.
as §1, §2

soleus muscles = conditions: 48-h T3 subcutaneously; 90 Hz continuous stimulation; cited from earlier work
[3] = AKG-administered uremic rats, Krebs Ringer vs Uremic buffer incubation

Row | SMILES | effect on muscle performance in terms of endurance during sustained contraction (muscle; AKG administration) | peripheral fatigue during sustained contraction at normal working frequency (muscle; oral AKG) | period within which muscle function improves (muscle; oral preparation) [days] | endurance profile of soleus muscle (buffer effect) [1, 3] | endurance of soleus muscles ([1]; control rats given AKG vs placebo, incubated in Krebs Ringer) | slowing of Rate of Force Generation ([1]; slow-twitch muscles, oral treatment 21 days or less) [%] | Maximal Isometric Force improvement ([1]; slow-twitch muscles, oral treatment 21 days or less, vs untreated controls) [%] | endurance performance of extensor digitorum longus muscle ([2]; AKG administered uremic rats vs placebo administered uremic rats) | endurance profile of extensor digitorum longus muscle (buffer effect) [2, 3] | slowing of Rate of Force Generation ([2]; fast-twitch muscles, oral treatment 21 days or less) [%] | Maximal Isometric Force improvement ([2]; fast-twitch muscles, oral treatment 21 days or less, vs untreated controls) [%] | rate of fatigue of soleus muscle (soleus muscles)
1 | O=C(O)CCC(=O)C(=O)O [AKG, alpha-ketoglutarate] | beneficial effect | reduce | ≤ 21 | better endurance profile | improves the endurance; also recorded: improved endurance | ~130 | 12 | improved performance | better endurance profile | ~8.5 | 28 | 
2 | N[C@@H](Cc1cc(I)c(Oc2ccc(O)c(I)c2)c(I)c1)C(=O)O [T3, 3,5,3′-triiodothyronine] |  |  |  |  |  |  |  |  |  |  |  | rapid rate of fatigue
